Among the data in patent publication US11999727B2 (Tango Therapeutics, Inc., priority 2020, dated 2024) are IC50 and MTAP intact/deleted ratio values, retold here.

For assay [1], the system named is HAP1 MTAP-deleted cell line. Briefly: Viability assay, MTAP-deleted cell line. The assay is classed as cell-based. Conditions: Homo sapiens, HAP1, viability assay, MTAP-deleted cell line; read-out: HAP1 MTAP deleted viability. From the text:
Table 1 additionally indicates IC50 values in a viability assay for the MTAP-deleted cell line (column 10), indicating the effect of treatment with compound on cell survival.

For assay [2], the system named is HAP1 MTAP-deleted cell line. In words: SDMA in-cell western assay, HAP1 MTAP-deleted. It counts as cell-based. The following applies: for IC50: Homo sapiens, HAP1, SDMA in-cell western, HAP1 MTAP-deleted, read-out: HAP1 MTAP deleted IC50; for MTAP intact/deleted ratio: IC50 ratio HAP1 MTAP-intact / HAP1 MTAP-deleted, SDMA in-cell western. The essentials:
(§1)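 MTAP-null vs endogenous-MTAP HAP1 isogenic cells; in-cell western SDMA readout; IC50 per line.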

Assay [3] deals with T1, PRMT5 (Homo sapiens, UniProt O14744).
T1 construct: purchased Viva (custom protein)
Briefly: PRMT5 biochemical IC50 assay with MTA as cofactor. Conditions: PRMT5, MTA as cofactor; read-out: MTA IC50.

Assay [4] deals with T1, PRMT5. Briefly: PRMT5 biochemical IC50 assay with SAM as cofactor. The following applies: PRMT5, SAM as cofactor; read-out: SAM IC50.
For assay [5], the system named is HAP1 MTAP-intact cell line. In words: SDMA in-cell western assay, HAP1 MTAP-intact. Conditions: Homo sapiens, HAP1, SDMA in-cell western, HAP1 MTAP-intact; read-out: MTAP HAP1 intact IC50. The assay is classed as cell-based. The essentials: as §1
Assay [6] deals with T1, PRMT5. In words: PRMT5 biochemical IC50 assay with no cofactor. The following applies: PRMT5, no cofactor; read-out: No Cofactor/rel IC50. From the text:
Table 1 indicates IC50 values (μM) against PRMT5 for exemplary compounds in the presence of SAM as cofactor, with no cofactor, and with MTA as cofactor, respectively (columns 4-6). […] Ki values can be calculated from the IC50 values as described in the Examples section. As detailed in the Examples section, for the assay performed in the presence of SAM, IC50=Ki×1.5 (Ki=IC50/1.5).

T1 sequence (O14744 whole entry): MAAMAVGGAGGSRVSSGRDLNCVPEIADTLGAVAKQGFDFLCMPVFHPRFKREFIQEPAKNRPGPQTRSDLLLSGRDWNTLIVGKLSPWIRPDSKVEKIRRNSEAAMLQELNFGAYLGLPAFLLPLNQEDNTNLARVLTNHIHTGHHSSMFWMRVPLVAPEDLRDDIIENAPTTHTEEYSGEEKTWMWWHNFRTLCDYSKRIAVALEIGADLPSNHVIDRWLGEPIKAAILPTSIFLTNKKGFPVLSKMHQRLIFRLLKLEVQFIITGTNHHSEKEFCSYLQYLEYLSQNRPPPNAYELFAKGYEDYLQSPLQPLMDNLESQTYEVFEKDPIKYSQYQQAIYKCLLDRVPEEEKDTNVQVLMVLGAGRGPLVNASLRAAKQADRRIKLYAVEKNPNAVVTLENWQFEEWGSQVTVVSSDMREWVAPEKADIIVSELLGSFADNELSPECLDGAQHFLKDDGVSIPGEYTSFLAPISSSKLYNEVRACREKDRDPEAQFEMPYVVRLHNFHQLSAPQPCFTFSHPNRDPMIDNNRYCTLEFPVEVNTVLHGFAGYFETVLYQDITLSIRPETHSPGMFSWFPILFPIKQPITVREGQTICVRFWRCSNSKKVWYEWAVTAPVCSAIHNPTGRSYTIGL
T1 sequence (Q9BQA1 whole entry partner): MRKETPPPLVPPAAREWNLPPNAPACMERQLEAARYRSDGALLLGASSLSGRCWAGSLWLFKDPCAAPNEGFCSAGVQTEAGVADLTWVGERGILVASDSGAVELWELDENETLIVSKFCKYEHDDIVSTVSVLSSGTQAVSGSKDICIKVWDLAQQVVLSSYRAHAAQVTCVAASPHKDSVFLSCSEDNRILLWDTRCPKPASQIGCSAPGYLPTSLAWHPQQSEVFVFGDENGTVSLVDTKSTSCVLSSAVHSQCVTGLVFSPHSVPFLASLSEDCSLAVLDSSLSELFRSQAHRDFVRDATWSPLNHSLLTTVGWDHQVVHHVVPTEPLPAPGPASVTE

Consider `Cc1cc(NC(=O)C(=O)N2C[C@@H](C)CC[C@@H]2c2ccc(NS(C)(=O)=O)cc2)cnc1N` (single isomer, unassigned) [Compound 506], for which the IC50 in assay [1] is greater than 10 µM; in assay [2] it was greater than 1 µM; on PRMT5 [3], greater than 0.5 µM; on PRMT5 [4], greater than 0.5 µM; in assay [5], greater than 1 µM; at PRMT5 [6], greater than 0.5 µM. For the same compound, in assay [2], the MTAP intact/deleted ratio result is recorded as “B (an IC50 ratio greater than or equal to 3 fold but lower than 10 fold)”.
Consider `Cc1cc(NC(=O)C(=O)N2C[C@@H](C)CC[C@@H]2c2cccc(C(F)(F)F)c2)cnc1N` (single isomer, unassigned) [Compound 507], for which the IC50 in assay [1] is greater than 10 µM; in assay [2], greater than 1 µM; on PRMT5 [3] it was greater than 0.5 µM; at PRMT5 [4], greater than 0.5 µM; in assay [5], greater than 1 µM; on PRMT5 [6], greater than 0.5 µM. For the same compound, the MTAP intact/deleted ratio entry in assay [2] is listed as “C (an IC50 ratio of less than 3 fold)”.
On to `C[C@@H]1CC[C@@H](c2ccc(C(F)(F)F)cc2)N(C(=O)C(=O)Nc2cncc(C(N)=O)c2)C1` (single isomer, unassigned) [Compound 508], for which the IC50 was greater than 10 µM in assay [1]; greater than 1 µM in assay [2]; greater than 0.5 µM at PRMT5 [3]; greater than 0.5 µM on PRMT5 [4]; greater than 1 µM in assay [5]; greater than 0.5 µM at PRMT5 [6]. The MTAP intact/deleted ratio entry in assay [2] is “C (an IC50 ratio of less than 3 fold)”.
In the case of `C[C@H]1CC[C@H](c2cccc(C(F)(F)F)c2)N(C(=O)C(=O)Nc2cncc(C(N)=O)c2)C1` (single isomer, unassigned) [Compound 509], the IC50 in assay [1] was 1 to 10 µM; in assay [2], less than 0.1 µM; on PRMT5 [3], less than 0.05 µM; at PRMT5 [4], 0.05 to 0.5 µM; in assay [5], greater than 1 µM; on PRMT5 [6], 0.05 to 0.5 µM. For the same compound, the MTAP intact/deleted ratio result in assay [2] is given as “A (an IC50 ratio greater than or equal to 10 fold)”.
On to `C[C@@H]1CC[C@@H](c2cccc(C(F)(F)F)c2)N(C(=O)C(=O)Nc2cncc(C(N)=O)c2)C1` (single isomer, unassigned) [Compound 510], for which the IC50 is greater than 10 µM in assay [1]; greater than 1 µM in assay [2]; greater than 0.5 µM on PRMT5 [3]; greater than 0.5 µM on PRMT5 [4]; greater than 1 µM in assay [5]; greater than 0.5 µM on PRMT5 [6]. In addition, the MTAP intact/deleted ratio result in assay [2] is “C (an IC50 ratio of less than 3 fold)”.
For `C[C@H]1CC[C@H](c2ccc(C(F)(F)F)cc2)N(C(=O)C(=O)Nc2cncc(C(N)=O)c2)C1` (single isomer, unassigned) [Compound 511], the IC50 in assay [1] is 1 to 10 µM; in assay [2], 0.1 to 1 µM; at PRMT5 [3], less than 0.05 µM; on PRMT5 [4] it was 0.05 to 0.5 µM; in assay [5], greater than 1 µM; on PRMT5 [6], 0.05 to 0.5 µM. The MTAP intact/deleted ratio result in assay [2] is given as “A (an IC50 ratio greater than or equal to 10 fold)”.
Consider `C[C@H]1CC[C@H](c2ccc(F)c(Cl)c2)N(C(=O)C(=O)Nc2cncc(C(N)=O)c2)C1` (single isomer, unassigned) [Compound 512], for which the IC50 in assay [1] is 1 to 10 µM; in assay [2] it was less than 0.1 µM; at PRMT5 [3], less than 0.05 µM; at PRMT5 [4] it was 0.05 to 0.5 µM; in assay [5], greater than 1 µM; at PRMT5 [6] it was 0.05 to 0.5 µM. Moreover, in assay [2], the MTAP intact/deleted ratio entry was “A (an IC50 ratio greater than or equal to 10 fold)”.
Consider `C[C@@H]1CC[C@@H](c2ccc(F)c(Cl)c2)N(C(=O)C(=O)Nc2cncc(C(N)=O)c2)C1` (single isomer, unassigned) [Compound 513], for which the IC50 is greater than 10 µM in assay [1]; greater than 1 µM in assay [2]; greater than 0.5 µM on PRMT5 [3]; greater than 0.5 µM on PRMT5 [4]; greater than 1 µM in assay [5]; greater than 0.5 µM on PRMT5 [6]. In assay [2], the MTAP intact/deleted ratio entry is reported as “C (an IC50 ratio of less than 3 fold)”.
As for `COc1ncc(NC(=O)C(=O)N2C[C@H](C)CC[C@H]2c2cncs2)cc1C(N)=O` (single isomer, unassigned) [Compound 514], the IC50 in assay [1] is greater than 10 µM; in assay [2], greater than 1 µM; at PRMT5 [3], greater than 0.5 µM; at PRMT5 [4], greater than 0.5 µM; in assay [5] it was greater than 1 µM; on PRMT5 [6], greater than 0.5 µM. In assay [2], the MTAP intact/deleted ratio result is on record as “C (an IC50 ratio of less than 3 fold)”.
For `COc1ncc(NC(=O)C(=O)N2C[C@@H](C)CC[C@@H]2c2cncs2)cc1C(N)=O` (single isomer, unassigned) [Compound 516], the IC50 in assay [1] was less than 1 µM; in assay [2], less than 0.1 µM; at PRMT5 [3], less than 0.05 µM; on PRMT5 [4] it was less than 0.05 µM; in assay [5], greater than 1 µM; at PRMT5 [6], less than 0.05 µM. Also, in assay [2], the MTAP intact/deleted ratio result is “A (an IC50 ratio greater than or equal to 10 fold)”.
With `Cc1cc(NC(=O)C(=O)N2CCCC[C@H]2c2ccc3[nH]ncc3c2)cnc1N` (single isomer, unassigned) [Compound 518], the IC50 in assay [1] is less than 1 µM; in assay [2], less than 0.1 µM; at PRMT5 [3], less than 0.05 µM; at PRMT5 [4] it was 0.05 to 0.5 µM; in assay [5], greater than 1 µM; on PRMT5 [6], 0.05 to 0.5 µM. In assay [2], the MTAP intact/deleted ratio entry is listed as “A (an IC50 ratio greater than or equal to 10 fold)”.
For the compound `Cc1cc([C@@H]2CC[C@@H](C)CN2C(=O)C(=O)Nc2cncc(C(N)=O)c2)ccn1` (single isomer, unassigned) [Compound 519], the IC50 in assay [1] was greater than 10 µM; in assay [2], greater than 1 µM; on PRMT5 [3] it was greater than 0.5 µM; on PRMT5 [4], greater than 0.5 µM; in assay [5], greater than 1 µM; at PRMT5 [6], greater than 0.5 µM. For the same compound, in assay [2], the MTAP intact/deleted ratio result was “C (an IC50 ratio of less than 3 fold)”.
As for `C[C@H]1CC[C@H]([C@@H]2CCC[C@@H](O)C2)N(C(=O)C(=O)Nc2cncc(C(N)=O)c2)C1` (single isomer, unassigned) [Compound 520], the IC50 in assay [1] is greater than 10 µM; in assay [2] it was 0.1 to 1 µM; on PRMT5 [3] it was 0.05 to 0.5 µM; at PRMT5 [4], 0.05 to 0.5 µM; in assay [5], greater than 1 µM; at PRMT5 [6], 0.05 to 0.5 µM. Besides, in assay [2], the MTAP intact/deleted ratio result is “A (an IC50 ratio greater than or equal to 10 fold)”.
Consider `Cc1cc(NC(=O)C(=O)N2C[C@H](C)CC[C@H]2c2ccc(NCC(F)(F)F)cc2)cnc1N` (single isomer, unassigned) [Compound 522], for which the IC50 was 1 to 10 µM in assay [1]; 0.1 to 1 µM in assay [2]; less than 0.05 µM on PRMT5 [3]; 0.05 to 0.5 µM at PRMT5 [4]; greater than 1 µM in assay [5]; 0.05 to 0.5 µM at PRMT5 [6]. For the same compound, the MTAP intact/deleted ratio entry in assay [2] is listed as “A (an IC50 ratio greater than or equal to 10 fold)”.
As for `CC(=O)Nc1ccc([C@H]2CC[C@H](C)CN2C(=O)C(=O)Nc2cnc(N)c(C)c2)cc1` (single isomer, unassigned) [Compound 523], the IC50 in assay [1] was greater than 10 µM; in assay [2] it was greater than 1 µM; on PRMT5 [3], greater than 0.5 µM; on PRMT5 [4], greater than 0.5 µM; in assay [5], greater than 1 µM; on PRMT5 [6], greater than 0.5 µM. Besides, the MTAP intact/deleted ratio result in assay [2] is “C (an IC50 ratio of less than 3 fold)”.
